Values of other authors, collected in US20120040397A1, “Photo-Crosslinked Nucleic Acid Hydrogels” (priority 2008, published 2012).

Legend:
[1] = in vivo
PPAR-gamma = target: T1, PPAR-gamma (Homo sapiens, UniProt P37231); details: context-specific, depends on cell type
T1 sequence (P37231 1-505): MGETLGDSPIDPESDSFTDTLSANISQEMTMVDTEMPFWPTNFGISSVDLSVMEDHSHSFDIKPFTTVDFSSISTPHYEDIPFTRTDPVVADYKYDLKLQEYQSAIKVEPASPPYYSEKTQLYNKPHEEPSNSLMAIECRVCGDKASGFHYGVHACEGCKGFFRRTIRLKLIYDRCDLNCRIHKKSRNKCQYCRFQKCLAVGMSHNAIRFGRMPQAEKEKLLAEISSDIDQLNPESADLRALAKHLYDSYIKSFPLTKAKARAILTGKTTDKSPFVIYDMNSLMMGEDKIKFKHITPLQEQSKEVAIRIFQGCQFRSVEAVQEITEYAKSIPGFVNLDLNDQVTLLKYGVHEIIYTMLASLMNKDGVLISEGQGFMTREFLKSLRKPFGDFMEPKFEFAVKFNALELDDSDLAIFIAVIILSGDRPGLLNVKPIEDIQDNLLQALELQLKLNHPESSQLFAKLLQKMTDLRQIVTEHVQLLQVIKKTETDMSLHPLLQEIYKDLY

O=C1NC(=O)C(Cc2ccc3cc(OCc4ccccc4F)ccc3c2)S1 (stereo not drawn) [netoglitazone, 5-[{6-(2-fluorobenzyl)oxy-2-naphthyl}methyl]-2,4-thiazolidinedione]
efficacy in lowering plasma glucose, insulin, and triglyceride levels versus pioglitazone and troglitazone [1]: more efficacious
potency relative to rosiglitazone [1]: about three-fold
PPAR-gamma modulation (PPAR-gamma): full agonist of PPAR-gamma and as a partial agonist or antagonist in others
